In patent US9937183B2, “Antimicrobial compounds and methods of making and using the same” (priority 2013, dated 2018) one finds MIC50, MIC90 and MIC data, which are given here for four molecules.

Converted amounts (≈) assume the structure as drawn. Like-named read-outs stand apart in the source and are kept apart here.

Holding throughout (assay type): cell-based
Assay [1] has as its system B. mallei. As to the kind of experiment: microbe, parasite or virus in culture. The settings on record: Burkholderia mallei; for MIC50: read-out: B. mallei MIC50; for MIC90: read-out: B. mallei MIC90; for MIC: read-out: B. mallei MIC Range.
The test system of assay [2] is B. pseudomallei. The experiment in a line: microbe, parasite or virus in culture. The settings on record: Burkholderia pseudomallei; for MIC50: read-out: B. pseudomallei MIC50; for MIC90: read-out: B. pseudomallei MIC90; for MIC: read-out: B. pseudomallei MIC Range.
Assay [3] concerns P. aeruginosa ATCC27853. As to the kind of experiment: MIC, microtiter-based liquid assay (CLSI). As to conditions: Pseudomonas aeruginosa.
Assay [4] deals with K. pneumoniae 1705949. As to the kind of experiment: MIC, microtiter-based liquid assay (CLSI). The settings on record: Klebsiella pneumoniae, MDR strain.
For assay [5], the system named is E. faecium A6349 VanA + LNZ-R. As to the kind of experiment: MIC, microtiter-based liquid assay (CLSI). The settings on record: Enterococcus faecium.
In assay [6] the test system is F. tularensis. The experiment in a line: microbe, parasite or virus in culture. The settings on record: Francisella tularensis; for MIC50: read-out: F. tularensis MIC50; for MIC90: read-out: F. tularensis MIC90; for MIC: read-out: F. tularensis MIC Range.
The subject of assay [7] is A. baumannii 1705943. As to the kind of experiment: MIC, microtiter-based liquid assay (CLSI). As to conditions: Acinetobacter baumannii.
Assay [8] has as its system A. baumannii 1705936. The experiment in a line: MIC, microtiter-based liquid assay (CLSI). As to conditions: Acinetobacter baumannii, MDR strain.
Assay [9] concerns E. coli MG1655 parent. The experiment in a line: MIC, microtiter-based liquid assay (CLSI). As to conditions: Escherichia coli.
The test system of assay [10] is S. pneumoniae 02J1175 Mef(A). The experiment in a line: MIC, microtiter-based liquid assay (CLSI). The settings on record: Streptococcus pneumoniae.
In assay [11] the test system is S. aureus 11540 MRSA. As to the kind of experiment: MIC, microtiter-based liquid assay (CLSI). As to conditions: Staphylococcus aureus.
The test system of assay [12] is P. aeruginosa 1705904. The experiment in a line: MIC, microtiter-based liquid assay (CLSI). As to conditions: Pseudomonas aeruginosa, MDR strain.
For assay [13], the system named is E. coli ATCC25922. As to the kind of experiment: MIC, microtiter-based liquid assay (CLSI). As to conditions: Escherichia coli.
The subject of assay [14] is Y. pestis. As to the kind of experiment: microbe, parasite or virus in culture. As to conditions: Yersinia pestis; for MIC50: read-out: Y. pestis MIC50; for MIC90: read-out: Y. pestis MIC90; for MIC: read-out: Y. pestis MIC Range.
Assay [15] has as its system E. coli CAG12184 TolC. The experiment in a line: MIC, microtiter-based liquid assay (CLSI). As to conditions: Escherichia coli, CAG12184TOLC.
Assay [16] concerns E. coli 1705878. The experiment in a line: MIC, microtiter-based liquid assay (CLSI). The settings on record: Escherichia coli, MDR strain.
The test system of assay [17] is K. pneumoniae 1705966. The experiment in a line: MIC, microtiter-based liquid assay (CLSI). As to conditions: Klebsiella pneumoniae.
Assay [18] deals with B. anthracis. As to the kind of experiment: microbe, parasite or virus in culture. As to conditions: Bacillus anthracis; for MIC50: read-out: B. anthracis MIC50; for MIC90: read-out: B. anthracis MIC90; for MIC: read-out: B. anthracis MIC Range.
Assay [19] relates to P. aeruginosa 1705886. As to the kind of experiment: MIC, microtiter-based liquid assay (CLSI). The settings on record: Pseudomonas aeruginosa.
Setting [20] is: ATCC25922, read-out: MIC E. coli ATCC25922 + 50% HS.
The mark [21] stands for this setting: ATCC25922, read-out: MIC E. coli ATCC25922.

For `CC[C@H]1OC(=O)[C@H](C)[C@@H](O[C@H]2C[C@@](C)(OC)[C@@H](O)[C@H](C)O2)[C@H](C)[C@@H](O[C@@H]2O[C@H](C)C[C@H](N(C)C)[C@H]2O)[C@](C)(O)C[C@@H](C)CN(C)[C@H](C)[C@@H](O)[C@]1(C)O` [Azithromycin, reference compound], in [1], the MIC50 was found to be 0.5 µg/mL (≈ 0.668 µM), the MIC90 stood at 1 µg/mL (≈ 1.34 µM) and the MIC was in the range of 0.12 to 1 µg/mL (≈ 0.16 to 1.34 µM).
For `CC(C)(O/N=C(\C(=O)N[C@@H]1C(=O)N2C(C(=O)[O-])=C(C[n+]3ccccc3)CS[C@H]12)c1csc(N)n1)C(=O)O` [Ceftazidime, reference compound], in assay [2], the MIC50 was determined as 2 µg/mL (≈ 3.66 µM), the MIC90 amounted to 4 µg/mL (≈ 7.32 µM) and the MIC was in the range of 1 to 64 µg/mL (≈ 1.83 to 117 µM).
In the case of `C[C@@H](N)CCCc1cc(Cl)c(F)c(-c2cc3cn(-c4ccc(CNCCCNC(=N)N)cc4)c(=O)nc3[nH]2)c1` [Compound 1], the MIC was 4 µg/mL (≈ 7.23 µM) in assay [3]; 0.03 to 0.25 µg/mL (≈ 0.0542 to 0.452 µM) in assay [1]; 2 µg/mL (≈ 3.62 µM) in assay [4]; 4 µg/mL in assay [5]; 0.03 to 0.5 µg/mL (≈ 0.0542 to 0.904 µM) in [6]; 0.25 µg/mL (≈ 0.452 µM) in assay [7]. In addition, the MIC is 4 µg/mL (≈ 7.23 µM) in [8]; 0.5 µg/mL (≈ 0.904 µM) in assay [9]; 0.25 µg/mL (≈ 0.452 µM) in [10]; 0.125 µg/mL (≈ 0.226 µM) in assay [11]; 8 µg/mL (≈ 14.5 µM) in assay [12]; 0.125 µg/mL in assay [13] (setting [20]). For the same molecule, the MIC is 0.125 µg/mL (≈ 0.226 µM) in assay [13] (setting [21]); 0.03 to 0.5 µg/mL (≈ 0.0542 to 0.904 µM) in assay [14]; 0.06 µg/mL (≈ 0.108 µM) in assay [15]; 1 µg/mL (≈ 1.81 µM) in assay [16]; 0.25 µg/mL (≈ 0.452 µM) in assay [17]; 0.03 to 0.25 µg/mL (≈ 0.0542 to 0.452 µM) in [18]. The MIC was 2 µg/mL (≈ 3.62 µM) in assay [19] and 0.5 to 16 µg/mL (≈ 0.904 to 28.9 µM) in assay [2]. In addition, the MIC50 in assay [1] was not above 0.03 µg/mL; in assay [6] it was not above 0.03 µg/mL; in assay [14] it was 0.12 µg/mL (≈ 0.217 µM); in assay [18] it was 0.12 µg/mL (≈ 0.217 µM); in [2], 4 µg/mL (≈ 7.23 µM). For the same molecule, the MIC90 in assay [1] is 0.06 µg/mL (≈ 0.108 µM); in assay [6], not above 0.03 µg/mL; in assay [14], 0.25 µg/mL (≈ 0.452 µM); in [18], 0.25 µg/mL (≈ 0.452 µM); in assay [2], 4 µg/mL (≈ 7.23 µM).
Consider `CCc1cc(CCC[C@H](C)N)cc(-c2cc3cn(-c4ccc(CNCCCNC(=N)N)cc4)c(=O)nc3[nH]2)c1F` [Compound 2], for which the MIC in assay [3] is 4 µg/mL (≈ 7.32 µM); in assay [1], 0.03 to 0.25 µg/mL (≈ 0.0549 to 0.457 µM); in [4] it was 0.5 µg/mL (≈ 0.915 µM); in assay [5], 2 µg/mL; in [6] it was 0.03 to 0.25 µg/mL (≈ 0.0549 to 0.457 µM); in assay [7], 0.25 µg/mL (≈ 0.457 µM). For the same molecule, the MIC in [8] came out at 4 µg/mL (≈ 7.32 µM); in assay [9] it was 0.25 µg/mL (≈ 0.457 µM); in assay [10] it was 0.125 µg/mL (≈ 0.229 µM); in assay [11] it was 0.25 µg/mL (≈ 0.457 µM); in [12], 8 µg/mL (≈ 14.6 µM); in assay [13] (setting [20]), 0.25 µg/mL. Moreover, the MIC in assay [13] (setting [21]) is 0.125 µg/mL (≈ 0.229 µM); in assay [14] it was 0.03 to 0.25 µg/mL (≈ 0.0549 to 0.457 µM); in [15], 0.125 µg/mL (≈ 0.229 µM); in assay [16] it was 1 µg/mL (≈ 1.83 µM); in [17] it was 0.25 µg/mL (≈ 0.457 µM); in assay [18] it was 0.03 to 1 µg/mL (≈ 0.0549 to 1.83 µM). The MIC in [19] was 2 µg/mL (≈ 3.66 µM); in assay [2] it was 0.5 to 8 µg/mL (≈ 0.915 to 14.6 µM). The MIC50 in assay [1] is not above 0.03 µg/mL; in assay [6] it was not above 0.03 µg/mL; in assay [14] it was 0.12 µg/mL (≈ 0.22 µM); in [18] it was 0.12 µg/mL (≈ 0.22 µM); in assay [2], 2 µg/mL (≈ 3.66 µM). Besides, the MIC90 in [1] was 0.06 µg/mL (≈ 0.11 µM); in assay [6], not above 0.03 µg/mL; in assay [14] it was 0.25 µg/mL (≈ 0.457 µM); in assay [18], 0.12 µg/mL (≈ 0.22 µM); in assay [2] it was 4 µg/mL (≈ 7.32 µM).
